The nature of data set [1]: (§1) Cytotoxicity against HK2 cells after 24 hrs by LDH assay. It is filed as cell-based, HK-2. The settings on record: human, HK-2 cells.
A short description of data set [2]: (§2) Cytotoxicity against human RPTEC after 24 hrs by LDH assay. It counts as cell-based. The settings on record: RPTEC cells.
In data set [3] the test system is Pseudomonas aeruginosa. Put plainly: Antimicrobial activity against Pseudomonas aeruginosa ATCC 27853 measured after 24 hrs. It counts as functional.
In another data set the test system is Staphylococcus aureus. Put plainly: Antimicrobial activity against meticillin-susceptible Staphylococcus aureus ATCC 25923 measured after 24 hrs. It is filed as functional.
In the next data set the test system is Escherichia coli. Put plainly: Antimicrobial activity against Escherichia coli ATCC 25922 measured after 24 hrs. It counts as functional.
Data set [4] relates to Klebsiella pneumoniae. Kind of data set: Antimicrobial activity against Klebsiella pneumoniae ATCC 13883 measured after 24 hrs. It counts as functional.
A short description of data set [5]: (§3) Antimicrobial activity against multi-drug resistant Klebsiella quasipneumoniae subsp. similipneumoniae ATCC 700603 measured after 24 hrs. It counts as functional. The settings on record: ATCC 700603, 24 h.
Data set [6] concerns Klebsiella pneumoniae. Kind of data set: Antimicrobial activity against NDM-1 positive Klebsiella pneumoniae BAA-2146 measured after 24 hrs. It counts as functional.
For a further data set, the system named is Acinetobacter baumannii. Kind of data set: Antimicrobial activity against Acinetobacter baumannii ATCC 19606 measured after 24 hrs. It is filed as functional.
Data set [7] has as its system Pseudomonas aeruginosa. Kind of data set: Antimicrobial activity against polymyxin-resistant Pseudomonas aeruginosa clinical isolate FADDI-PA070 measured after 24 hrs. It is filed as functional.
The subject of data set [8] is Pseudomonas aeruginosa. Put plainly: Antimicrobial activity against polymyxin-resistant Pseudomonas aeruginosa clinical isolate PA9704 measured after 24 hrs. It is filed as functional.
Another data set relates to HK-2. Described as §1. It counts as cell-based. The settings on record: human, hk-2, 24 h.
The test system of the next data set is RPTEC. Described as §2. It is filed as cell-based. The settings on record: rptec, 24 h.
Data set [9] has as its system Klebsiella quasipneumoniae subsp. Similipneumoniae. The data set is described as §3. It counts as functional.
The mark [10] stands for this setting: ATCC 19606 = CIP 70.34 = JCM 6841, 24 h.

Values after ≈ are worked out from the molar mass of the structure shown. Bridge positions count the residues as written; N and C are the ends. Square brackets hold non-standard residues; d marks the D form. Peptide text beside a SMILES is read from it. * marks the point of attachment. Decanoyl(3R-OH) = CCCCCCC[C@@H](O)CC(=O)*; dDab = NCC[C@@H](N)C(=O)O; Dab = NCC[C@H](N)C(=O)O Where only a bound is given, the exact number is not on record here.

What is called CC50 is the concentration that lowers cell viability or growth by half. For the compound `CCCCCCC[C@@H](O)CC(=O)N[C@H](CCN)C(=O)N[C@@H](CCN)C(=O)N[C@@H](CCN)C(=O)N[C@H](Cc1ccccc1)C(=O)N[C@@H](CC(C)C)C(=O)N[C@@H](CCN)C(=O)N[C@@H](CCN)C(=O)N[C@@H](CC(C)C)C(=O)O` [listing 1 of 2 here], the CC50 at 24 h is 139 µM in data set [1] and 71 µM in data set [2].

Broadly, the MIC is the least concentration at which growth counts as inhibited. High values mean weaker potency, low ones greater potency. As for `CCCCCCC[C@@H](O)CC(=O)N[C@H](CCN)C(=O)N[C@@H](CCN)C(=O)N[C@@H](CCN)C(=O)N[C@H](Cc1ccccc1)C(=O)N[C@@H](CC(C)C)C(=O)N[C@@H](CCN)C(=O)N[C@@H](CCN)C(=O)N[C@@H](CC(C)C)C(=O)O` [listing 2 of 2 here], the MIC was 4 µg/mL (≈ 3.77 µM) in the data set on Pseudomonas aeruginosa [3] (ATCC 27853, 24 h); 32 µg/mL (≈ 30.1 µM) with Staphylococcus aureus (ATCC 25923, 24 h); 16 µg/mL (≈ 15.1 µM) against Escherichia coli (ATCC 25922, 24 h); > 32 µg/mL against Klebsiella pneumoniae [4] (ATCC 13883, 24 h); 16 µg/mL (≈ 15.1 µM) in data set [5]; > 32 µg/mL against Klebsiella pneumoniae [6] (ATCC BAA-2146, 24 h). The MIC in the data set on Acinetobacter baumannii (setting [10]) was > 32 µg/mL; in the data set with Pseudomonas aeruginosa [7] (isolate FADDI-PA070, 24 h), 32 µg/mL (≈ 30.1 µM); with Pseudomonas aeruginosa [8] (isolate PA9704, 24 h) it was > 32 µg/mL.

Consider `CCCCCCC[C@@H](O)CC(=O)N[C@H](CCN)C(=O)N[C@H]1CCNC(=O)[C@H](CC(C)C)NC(=O)[C@H](CCN)NC(=O)[C@H](CCN)NC(=O)[C@H](CC(C)C)NC(=O)[C@@H](Cc2ccccc2)NC(=O)[C@H](CCN)NC1=O` ({Decanoyl(3R-OH)}-[dDab][Dab][Dab][dF]L[Dab][Dab]L; lactam 2-C), for which the MIC in the data set on Pseudomonas aeruginosa [3] (ATCC 27853, 24 h) came to 2 µg/mL (≈ 1.92 µM); against Staphylococcus aureus (ATCC 25923, 24 h), 16 µg/mL (≈ 15.3 µM); in the data set with Escherichia coli (ATCC 25922, 24 h), 4 µg/mL (≈ 3.83 µM); against Klebsiella pneumoniae [4] (ATCC 13883, 24 h), 8 µg/mL (≈ 7.66 µM); in [5], 8 µg/mL (≈ 7.66 µM); against Klebsiella pneumoniae [6] (ATCC BAA-2146, 24 h), 8 µg/mL (≈ 7.66 µM). Also, the MIC amounted to 4 µg/mL (≈ 3.83 µM) against Acinetobacter baumannii (setting [10]); 2 µg/mL (≈ 1.92 µM) in the data set on Pseudomonas aeruginosa [7] (isolate FADDI-PA070, 24 h); 2 µg/mL (≈ 1.92 µM) in the data set on Pseudomonas aeruginosa [8] (isolate PA9704, 24 h). In addition, the CC50 at 24 h was determined as 31 µM in [1] and 39 µM in data set [2].

As for POLYMYXIN B [listing 1 of 2 here], the CC50 with HK-2 was 135 µM; with RPTEC, > 300 µM.

Take POLYMYXIN B [listing 2 of 2 here]: the MIC against Pseudomonas aeruginosa [3] was 0.5 µg/mL; in the data set with Staphylococcus aureus, > 64 µg/mL; against Escherichia coli it was 0.25 µg/mL; against Klebsiella pneumoniae [4], 0.25 µg/mL; in [9], 0.25 µg/mL; against Klebsiella pneumoniae [6] (ATCC BAA-2146), 0.25 µg/mL. In addition, the MIC is 0.25 µg/mL in the data set with Acinetobacter baumannii (ATCC 19606 = CIP 70.34 = JCM 6841), 32 µg/mL against Pseudomonas aeruginosa [7] and 128 µg/mL in the data set on Pseudomonas aeruginosa [8].

The values above are taken from ChEMBL document CHEMBL4028839, “Synthesis of octapeptin C4 and biological profiling against NDM-1 and polymyxin-resistant bacteria” (Bioorg Med Chem Lett, 2017).
